In PubChem BioAssay AID2423 (Broad Institute, 2010):
Results filed as inconclusive are left out. Active and inactive are the calls of the source. How the calls were made is not given here.

Tested on: C. albicans CaCi-8 + fluconazole, Alamar Blue growth, 48 h
Assay: resistant C. albicans growth inhibition with fluconazole, dose response, CaCi-8 strain, Alamar Blue fluorescence (AID 2423)

SMILES	EC50
O=C(O)c1ccc(CN2C(=O)CSC2=S)cc1	> 15000 nM (inactive)
O=C(Cc1ccccc1)N/N=C/c1cc(Br)cc(Cl)c1O	> 15000 nM (inactive)
Cc1cccc(Cc2nnc(CCC(=O)N3CCCCC3c3nccs3)o2)c1 (stereo unspecified)	> 16000 nM (inactive)
Cc1ccc(O)c(C2=NNC(c3ccc(Cl)cc3)C2)c1 (stereo unspecified)	395 nM
Cc1cc(C(C#N)c2ccccc2F)n2ncnc2n1 (stereo unspecified)	895 nM
COc1ccc(C(c2c(O)ccc3ccccc23)N2CCOCC2)c(OC)c1 (stereo unspecified)	2850 nM
Cc1ccc(S(=O)(=O)N(C)c2ccc(OCC(=O)Nc3nnc(C4CC4)s3)cc2)cc1	708 nM
CCCC(=O)NC(c1cccs1)c1cc(Cl)c2cccnc2c1O (stereo unspecified)	729 nM
CCn1nc(-c2ccccc2)nc2c(=O)n(C)c(=O)nc1-2	883 nM
Cc1ccc(NC(=O)c2noc(C(C)C)c2[N+](=O)[O-])cc1	3200 nM
O=C(N/N=C/c1ccccc1O)c1cccc(C(F)(F)F)c1	1840 nM
CCOC(=O)COc1ccc(S(=O)(=O)N2CCN(c3ccccc3F)CC2)cc1	> 15000 nM (inactive)
O=C(NC1CCCCC1)C(c1ccc2ncccc2c1)N(Cc1ccc(F)cc1)C(=O)c1ccc2c(c1)OCCO2 (stereo unspecified)	> 15000 nM (inactive)
CCOc1ccc(NC(=O)NNC(=O)c2ccc3ccccc3c2O)cc1	2460 nM
O=C(Oc1c(CN2CCOCC2)cc(Cl)c2cccnc12)c1cccs1	3400 nM
COc1cccc(-c2nnc(NC(=O)c3ccc4ncsc4c3)o2)c1	1030 nM
S=C(Nc1ccccc1)Nc1nc2ccccc2n1CCOc1ccccc1	2000 nM
N/C(Cc1ccc(Cl)cc1Cl)=N\OC(=O)c1ccccc1	833 nM
O=C(Nc1ccccc1)OCN1C(=O)c2ccccc2C1=O	> 15000 nM (inactive)
Cc1ccc(/C=C2\SC(=S)N(/N=C/c3cc([N+](=O)[O-])ccc3O)C2=O)o1	3330 nM
CCOC(=O)c1cnc2ccc(C)cc2c1Nc1ccc(N2CCOCC2)cc1	1100 nM
Cc1ccc(NC(=S)c2nc3ccccc3[nH]2)cc1	> 16000 nM (inactive)
O=c1ccc(N=Nc2ccccc2)ccc1O	879 nM

SMILES	EC50
O=C1c2ccccc2C(=O)c2c1cccc2N1CCCC1	> 16000 nM (inactive)
O=C(/C=C/c1ccccc1)NC(=S)Nc1ccc(N2CCOCC2)c(Cl)c1	> 16000 nM (inactive)
Oc1ccccc1N=Nc1ccccc1O	973 nM
Fc1cccc(-n2cc(-c3ccccc3)c3c(=S)nc[nH]c32)c1	1800 nM
Cc1ccc(C(=O)c2coc3c2C(=O)C(=O)c2ccccc2-3)cc1	146 nM
O=C(Nc1nnc(-c2ccc3c(c2)CCCC3)o1)c1ccc(Cl)cc1Cl	< 120 nM
CCN(CC)c1cccc(OC2=NS(=O)(=O)c3ccccc32)c1	11000 nM
CC(C)C(Sc1nc(-c2ccccc2)cc(-c2ccccc2)c1C#N)C(=O)O (stereo unspecified)	3770 nM
CCC(=O)NC(c1cccs1)c1cc(Cl)c2cccnc2c1O (stereo unspecified)	372 nM
CN1CCc2cc3c(c4c2[C@H]1[C@H](O)c1ccccc1-4)OCO3	8200 nM
Cc1ccc(C2=NNC3(CCOC(C)(C)C3)S2)cc1 (stereo unspecified)	14800 nM
Cc1ccc(S(=O)(=O)CCC(=O)Nc2nc(-c3ccncc3)cs2)cc1	2140 nM
Cc1ccc(O)c(-c2cc(-c3cccc(Br)c3)n[nH]2)c1	6710 nM
O=c1c2cc(Br)ccc2nc(-c2ccccc2)n1O	2080 nM
COc1ccc(C)cc1N=Nc1ccc(O)c2ncccc12	656 nM
CCCCN(C)S(=O)(=O)c1ccc(C(=O)Nc2nnc(-c3ccco3)o2)cc1	> 16000 nM (inactive)
Cc1ccc(C(c2cc(Cl)c3cccnc3c2O)N2CCN(C)CC2)cc1 (stereo unspecified)	704 nM
CCCn1c(=N)n(CC(=O)c2ccc([N+](=O)[O-])cc2)c2ccccc21	> 16000 nM (inactive)
COc1ccc2c(c1OC)C(=O)N1N=C(c3ccc(O)cc3)CC21 (stereo unspecified)	> 15000 nM (inactive)
Oc1ccc(/C=N/N(c2ccccc2)c2ccccc2)c(O)c1O	10800 nM
O=C(N/N=C/c1sc(N2CCOCC2)nc1-c1ccccc1)c1cccc(S(=O)(=O)N2CCOCC2)c1	1150 nM
CCn1c(O)c(N=NC(=O)c2cccs2)c2ccccc21	1320 nM
COc1ccc(-c2cc(N)n(S(=O)(=O)c3c(F)c(F)c(F)c(F)c3F)n2)cc1OC	> 16000 nM (inactive)

SMILES	EC50
CC(C)=CCc1cc2c(=O)c3c(O)c4c(cc3oc2c(O)c1O)OC(C)C4(C)C (stereo unspecified)	6360 nM
O=C(CCS(=O)(=O)c1cccc2nsnc12)N1CCN(C(=O)c2ccco2)CC1	> 16000 nM (inactive)
Cc1[nH]n(C(N)=S)c(=O)c1N=Nc1ccc(S(=O)(=O)N2CCCCCC2)cc1	9480 nM
CCCC(=O)NC(c1ccccc1OC)c1ccc2cccnc2c1O (stereo unspecified)	1040 nM
O=C(O)c1cnc(-c2ccccc2)nc1Sc1ccccc1Cl	> 16000 nM (inactive)
CCCOc1cccc(C(=O)Nc2cccnc2)c1	2200 nM
COc1cccc(/C=N/Nc2ccc([N+](=O)[O-])cn2)c1O	1500 nM
O=C(N/N=C/c1cc2c3c(c1O)CCCN3CCC2)c1ccccc1O	895 nM
COc1ccc(-c2c[n+]3c(n2-c2ccccc2)CCCCC3)cc1	9580 nM
Oc1c(C(c2ccccc2Cl)N2CCCC2)ccc2cccnc12 (stereo unspecified)	1250 nM
O=C(NC(c1ccc(Cl)cc1)c1cc(Cl)c2cccnc2c1O)c1cccnc1 (stereo unspecified)	329 nM
CCOc1ccc2nc(N3C(=O)/C(=C/c4ccccc4)NC3=S)sc2c1	1410 nM
C/C(=N\NC(=O)CCC(=O)Nc1ccc(C)c(C)c1)C1CC1	> 15000 nM (inactive)
COC(=O)c1c(C(=O)OC)c(-c2ccc(Cl)c(Cl)c2)n2c1CCC2	8980 nM
CCOC(=O)Cc1csc(NC(=O)c2ccc3ncsc3c2)n1	6820 nM
CCOC(=O)c1[nH]c2ccc(F)cc2c1NC(=O)c1ccccc1C(=O)O	> 15000 nM (inactive)
COCCSc1nnc(NC(=O)C2CC(=O)N(c3ccc(C)cc3)C2)s1 (stereo unspecified)	> 16000 nM (inactive)
CCCc1nnc(NC(=S)Nc2ccccc2)s1	1340 nM
Cc1cc(C(=O)Nc2ccccc2C(=O)O)ccc1NC(=O)COc1cccc([N+](=O)[O-])c1	5270 nM
CCCCCCc1c(C)nc(-n2[nH]c(C)c(CCO)c2=O)[nH]c1=O	1690 nM
Cc1[nH]c2ccccc2c1/C=C/c1cc[n+](C)cc1	7180 nM
COc1cccc2sc(Nc3nnc(-c4ccc(F)cc4)o3)nc12	1240 nM
Cc1ccc(Nc2nc(NCc3ccco3)c3ccccc3n2)cc1	2440 nM

SMILES	EC50
CN(C)S(=O)(=O)c1cccc(NC(=S)N/N=C/c2cc(Br)ccc2O)c1	3840 nM
Cc1ccc(S(=O)(=O)c2c(C)nn(C(C)(C)C)c2OC(=O)c2ccc(Br)o2)cc1	> 16000 nM (inactive)
OC(COc1ccc2c(c1)OCO2)CN1CCCC1 (stereo unspecified)	> 15000 nM (inactive)
CC(C)(C)CC(=O)Nc1nnc(C(F)(F)F)s1	> 16000 nM (inactive)
CCOc1cc(-c2nc(-c3cc(OC)c(OC)c(OC)c3)no2)cc(OCC)c1OCC	> 16000 nM (inactive)
O=c1[nH]c(SCc2ccccc2F)nc2ccccc12	2120 nM
Cc1ccc(-c2nnc(NC(=O)c3ccc([N+](=O)[O-])o3)o2)c(C)c1	2160 nM
CCOc1ccccc1NC(=O)C(=O)N/N=C/c1cc(Br)ccc1O	1380 nM
N#C/C(=C\c1ccc(O)c(O)c1)C(=O)Nc1cccc2ncccc12	> 15000 nM (inactive)
O=C(Cc1cccs1)Nc1cccc(-c2nc3ccccc3[nH]2)c1	798 nM
COC(=O)c1c(C)n(-c2ccccc2)c2ccc(O)cc12	3160 nM
CSc1ccc(/C=C/C(=O)Nc2ccccc2)cc1	> 15000 nM (inactive)
O=C1CS/C(=N\C(=O)N2c3ccccc3Sc3ccccc32)N1	1090 nM
CCCC(=O)NC(c1ccco1)c1cc([N+](=O)[O-])c2cccnc2c1O (stereo unspecified)	840 nM
CCOC(=O)Cc1csc(NC(=O)CSc2nc3sc(C(=O)O)c(C)c3c(=O)[nH]2)n1	> 16000 nM (inactive)
CCN(CC)c1ccc2cc(S(=O)(=O)c3ccc(C)cc3)c(=O)oc2c1	657 nM
CC(C)CC(=O)NC(=S)NNC(=O)c1ccc(NC(=O)C2CCCCC2)cc1	1210 nM
CCc1cc(C(=O)NC2CCCc3c2cnn3-c2cccc(C)c2C)n(C)n1 (stereo unspecified)	232 nM
Oc1[nH]c2ccc(Br)cc2c1N=NC(=S)N1CCOCC1	3100 nM
CCCC(=O)NC(c1ccc(C)cc1)c1ccc2cccnc2c1O (stereo unspecified)	715 nM
O=[N+]([O-])c1cc(Br)c(O)c(/C=N/Nc2nnnn2-c2cccc3ccccc23)c1	> 15000 nM (inactive)
O=C(N/N=C/c1sc(N2CCOCC2)nc1-c1ccccc1)c1cccc(S(=O)(=O)N2CCCC2)c1	2160 nM
COc1ccc(-c2nnc(NC(=O)c3ccc(S(=O)(=O)N4CCc5ccccc5C4)cc3)o2)cc1	747 nM

SMILES	EC50
C(=N\NC1=Nc2cccc3cccc1c23)/c1ccccn1	> 16000 nM (inactive)
CS/C(=N\S(=O)(=O)c1cccs1)Nc1ccc(Cl)cc1	1200 nM
O=C(NNC(=S)NC1CCCCC1)c1ccccc1Br	> 16000 nM (inactive)
COc1cc(/C=C(\C#N)c2nc3ccccc3[nH]2)ccc1O	1490 nM
CNC1=C(N(C(C)=O)c2ccc(Br)cc2)C(=O)c2ccccc2C1=O	190 nM
Cc1onc(-c2ccccc2)c1C(=O)N/N=C(\N)COc1ccc(Cl)cc1	14200 nM
Cc1cccc(C)c1OCC(=O)NNC(=S)NC(=O)C1CC1	950 nM
COc1cccc(/C=N/NC(=O)c2nc(-c3ccccc3)cc(-c3ccccc3)n2)c1O	1760 nM
Oc1c(CN2CCc3ccccc3C2)cc(Cl)c2cccnc12	849 nM
COCCNC(=O)NC12CC3CC(CC(C3)C1)C2	> 16000 nM (inactive)
Cn1c(SC2=CS(=O)(=O)c3ccccc32)nc2ccccc21	2320 nM
C[C@@H]1C[C@@H]2O[C@H]2/C=C\C=C\C(=O)Cc2c(Cl)c(O)cc(O)c2C(=O)O1	234 nM
O=[N+]([O-])c1cccc(-c2cc(-c3cc(Br)ccc3O)[nH]n2)c1	866 nM
Cc1ccc(C(=O)Nc2cccc(-c3cn4ccccc4n3)c2)cc1	326 nM
COc1cccc(-n2c(SCc3cc(=O)oc4cc(O)c(O)cc34)nc3ccccc3c2=O)c1	5670 nM
Nc1nn2cc(-c3ccc(Br)cc3)nc2c2ccccc12	962 nM
NC(N)=N/N=C/c1ccc(N(c2ccccc2)c2ccccc2)cc1	> 15000 nM (inactive)
O=C(N/N=C/c1ccccn1)c1cc(-c2ccc(Cl)cc2)nc2ccccc12	4330 nM
CC(=O)Oc1ccc2c(=O)c(-c3nc4ccccc4s3)coc2c1	3520 nM
